These results are taken from patent publication US20260098008A1, “COVALENT, CHEMOGENETIC ACTIVATORS FOR K2P POTASSIUM CHANNELS AND USES THEREOF” (THE REGENTS OF THE UNIVERSITY OF CALIFORNIA, priority 2022, published 2026).

Molecules are shown by their SMILES.

Holding throughout (experiment): TEVC in Xenopus oocytes
Holding throughout (assay type): cell-based

For one experiment, the target named is T1, K2P10.1 (TREK-2)^CG* (Mus musculus, UniProt Q8BUW1, S153C).
T1 construct: Modified TREK-2 from Mus musculus; expressed in transfected cells; host or cells: Xenopus laevis oocytes injected with mRNA
T1 sequence (Q8BUW1 with tags, fused parts or gaps S153C): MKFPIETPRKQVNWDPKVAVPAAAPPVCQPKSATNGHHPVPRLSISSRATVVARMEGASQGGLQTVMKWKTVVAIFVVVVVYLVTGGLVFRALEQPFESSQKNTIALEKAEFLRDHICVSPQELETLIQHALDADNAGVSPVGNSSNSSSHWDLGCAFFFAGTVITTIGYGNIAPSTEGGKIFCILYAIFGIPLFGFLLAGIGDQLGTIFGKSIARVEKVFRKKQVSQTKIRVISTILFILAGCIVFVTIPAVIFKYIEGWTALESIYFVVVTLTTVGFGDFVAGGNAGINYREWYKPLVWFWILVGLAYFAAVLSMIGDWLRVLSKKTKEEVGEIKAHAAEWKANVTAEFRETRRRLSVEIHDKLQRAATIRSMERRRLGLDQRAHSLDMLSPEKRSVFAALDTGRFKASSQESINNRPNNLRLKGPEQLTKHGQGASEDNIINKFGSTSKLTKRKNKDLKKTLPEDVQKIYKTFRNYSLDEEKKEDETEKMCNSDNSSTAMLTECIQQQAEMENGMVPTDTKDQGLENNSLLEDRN
The following applies: 20 μM, Xenopus oocytes.

The target in the next experiment is T2, K2P18.1 (TRESK)^CG* (Mus musculus, UniProt Q6VV64, S116C).
T2 construct: expressed in transfected cells; host or cells: Xenopus laevis oocytes injected with mRNA
T2 sequence (Q6VV64 1-394 S116C): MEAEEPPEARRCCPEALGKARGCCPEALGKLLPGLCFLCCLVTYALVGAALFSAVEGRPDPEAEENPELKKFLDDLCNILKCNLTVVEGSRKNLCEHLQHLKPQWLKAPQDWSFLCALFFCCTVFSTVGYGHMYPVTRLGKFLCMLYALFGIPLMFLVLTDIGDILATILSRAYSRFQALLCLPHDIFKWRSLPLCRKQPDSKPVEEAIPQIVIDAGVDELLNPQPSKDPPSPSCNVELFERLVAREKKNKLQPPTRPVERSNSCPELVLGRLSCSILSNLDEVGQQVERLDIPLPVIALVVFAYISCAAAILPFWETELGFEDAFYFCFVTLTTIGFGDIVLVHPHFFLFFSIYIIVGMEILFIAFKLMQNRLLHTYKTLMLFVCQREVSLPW
The following applies: 20 μM.

Another experiment addresses T3, K2P2.1 (TREK-1) S131A (Mus musculus, UniProt P97438, S146A).
T3 construct: expressed in transfected cells; host or cells: Xenopus laevis oocytes injected with mRNA
T3 sequence (P97438 1-411 isoform P97438-2 S131A): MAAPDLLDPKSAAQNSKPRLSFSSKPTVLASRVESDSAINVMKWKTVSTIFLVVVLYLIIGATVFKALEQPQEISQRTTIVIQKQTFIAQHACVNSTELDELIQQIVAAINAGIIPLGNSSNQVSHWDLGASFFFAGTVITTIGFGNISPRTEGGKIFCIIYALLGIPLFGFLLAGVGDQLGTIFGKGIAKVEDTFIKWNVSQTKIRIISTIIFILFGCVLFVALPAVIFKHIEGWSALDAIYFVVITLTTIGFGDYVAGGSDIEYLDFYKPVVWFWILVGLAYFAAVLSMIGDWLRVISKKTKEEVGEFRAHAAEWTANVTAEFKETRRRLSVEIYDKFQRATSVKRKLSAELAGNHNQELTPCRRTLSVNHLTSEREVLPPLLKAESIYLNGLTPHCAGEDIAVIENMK
The following applies: 20 μM, 0 mV.

For the compound `O=C(NCc1ccc(Cl)cc1Cl)c1ccc(N2C(=O)C=CC2=O)cc1` [CAT335], on K2P10.1 (TREK-2)^CG* (0 mV), the “Fold-activation (I activator/I control)” value is 18±2 fold. Moreover, the Reversibility of activation entry at K2P10.1 (TREK-2)^CG* is given as “irreversibly activated”. Besides, at K2P18.1 (TRESK)^CG*, the Activation of channel entry is “not activated”.
Turning to `CS(=O)(=O)Nc1ccc(C(=O)NCc2ccc(Cl)cc2Cl)cc1` [ML335, reference compound], the “Fold-activation (I activator/I control)” value at K2P2.1 (TREK-1) S131A came out at 6.8 fold.
